Source: paper PMC5908784, “Extracellular loops 2 and 3 of the calcitonin receptor selectively modify agonist binding and efficacy” (Biochemical Pharmacology, 2018)
Positions count from the first letter of the chain named. Where a SMILES comes first, the peptide text is derived from it. Bridges are numbered along the chain shown (N, C = ends).

Columns and labels:
Test in all cases: IP1 accumulation
Format in all cases: cell-based
Settings in all cases: mean ± S.E.M.; for Emax: IP1 maximal response, SEM
hCTR D373A = target: T1, hCTR D373A (Homo sapiens, UniProt P30988, D373A)
T1 construct: c-Myc (N); expressed in transfected cells
T1 sequence (P30988 25-474 D373A): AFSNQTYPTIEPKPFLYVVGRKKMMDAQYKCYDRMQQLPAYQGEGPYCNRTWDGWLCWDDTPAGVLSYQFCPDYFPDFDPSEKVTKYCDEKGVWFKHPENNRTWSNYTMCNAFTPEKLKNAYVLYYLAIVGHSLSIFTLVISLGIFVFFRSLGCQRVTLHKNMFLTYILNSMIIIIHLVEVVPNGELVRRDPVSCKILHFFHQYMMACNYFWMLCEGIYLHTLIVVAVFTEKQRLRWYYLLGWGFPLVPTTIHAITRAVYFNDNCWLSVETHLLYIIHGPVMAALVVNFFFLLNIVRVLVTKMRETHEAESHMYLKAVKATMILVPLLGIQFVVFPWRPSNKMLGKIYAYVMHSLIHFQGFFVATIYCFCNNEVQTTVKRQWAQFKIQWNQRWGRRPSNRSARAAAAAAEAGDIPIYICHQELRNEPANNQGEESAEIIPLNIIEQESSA
Procedure, shortened: (§1)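 Ligand-induced IP1 (60 min, LiCl) measured by HTRF; normalized to 100 μM ATP response.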

hCTR L368A = target: T2, hCTR L368A (Homo sapiens, UniProt P30988, L368A)
T2 construct: c-Myc (N); expressed in transfected cells
T2 sequence (P30988 25-474 L368A): T1 sequence (P30988 25-474 D373A) with L344A, A349D
Procedure, shortened: as §1

hCTR M367A = target: T3, hCTR M367A (Homo sapiens, UniProt P30988, M367A)
T3 construct: c-Myc (N); expressed in transfected cells
T3 sequence (P30988 25-474 M367A): T1 sequence (P30988 25-474 D373A) with M343A, A349D
Procedure, shortened: as §1

hCTR V293A = target: T4, hCTR V293A (Homo sapiens, UniProt P30988, V293A)
T4 construct: c-Myc (N); expressed in transfected cells
T4 sequence (P30988 25-474 V293A): T1 sequence (P30988 25-474 D373A) with V269A, A349D
Procedure, shortened: as §1

hCTR V358A = target: T5, hCTR V358A (Homo sapiens, UniProt P30988, V358A)
T5 construct: c-Myc (N); expressed in transfected cells
T5 sequence (P30988 25-474 V358A): T1 sequence (P30988 25-474 D373A) with V334A, A349D
Procedure, shortened: as §1

[1] = IP1, CV1-FlpIn cells, 60 min, LiCl

EC50 (hCTR D373A; [1]) [nM] | EC50 (hCTR L368A; [1]) [nM] | EC50 (hCTR M367A; [1]) [nM] | EC50 (hCTR V293A; [1]) [nM] | EC50 (hCTR V358A; [1]) [nM] | SMILES | Emax (hCTR D373A) [%] | Emax (hCTR L368A) [%] | Emax (hCTR M367A) [%] | Emax (hCTR V293A) [%] | Emax (hCTR V358A) [%]
 |  |  |  |  | CC[C@H](C)[C@H](NC(=O)[C@H](C)NC(=O)[C@@H](NC(=O)[C@H](CCC(N)=O)NC(=O)[C@@H]1CCCN1C(=O)[C@H](Cc1ccccc1)NC(=O)[C@@H](NC(=O)[C@H](Cc1c[nH]cn1)NC(=O)[C@H](Cc1ccccc1)NC(=O)[C@H](CCCCN)NC(=O)[C@H](CC(N)=O)NC(=O)[C@H](Cc1ccccc1)NC(=O)[C@H](CC(=O)O)NC(=O)[C@H](CCC(N)=O)NC(=O)[C@@H](NC(=O)[C@H](Cc1ccc(O)cc1)NC(=O)[C@@H](NC(=O)CNC(=O)[C@H](CC(C)C)NC(=O)[C@H](CCSC)NC(=O)[C@@H]1CSSC[C@H](N)C(=O)NCC(=O)N[C@@H](CC(N)=O)C(=O)N[C@@H](CC(C)C)C(=O)N[C@@H](CO)C(=O)N[C@@H]([C@@H](C)O)C(=O)N1)[C@@H](C)O)[C@@H](C)O)[C@@H](C)O)[C@@H](C)O)C(=O)NCC(=O)N[C@H](C(=O)NCC(=O)N[C@@H](C)C(=O)N1CCC[C@H]1C(N)=O)C(C)C [hCT] | 102 ± 10 | 115 ± 7 | 149 ± 8 | 87 ± 4 | 126 ± 9
14.8 | 10 | 5.13 | 3.24 | 3.31 | CSCC[C@H](NC(=O)CNC(=O)[C@H](CO)NC(=O)[C@H](Cc1ccccc1)NC(=O)[C@H](CCCNC(=N)N)NC(=O)[C@H](Cc1c[nH]cn1)NC(=O)[C@H](Cc1ccccc1)NC(=O)[C@H](CC(N)=O)NC(=O)[C@H](CC(N)=O)NC(=O)[C@H](CC(C)C)NC(=O)[C@H](CC(N)=O)NC(=O)[C@H](CCCNC(=N)N)NC(=O)[C@H](Cc1c[nH]c2ccccc12)NC(=O)[C@H](Cc1ccc(O)cc1)NC(=O)[C@H](C)NC(=O)[C@H](CO)NC(=O)[C@H](CC(C)C)NC(=O)[C@@H](NC(=O)[C@@H]1CSSC[C@H](N)C(=O)N[C@@H](CO)C(=O)N[C@@H](CC(N)=O)C(=O)N[C@@H](CC(C)C)C(=O)N[C@@H](CO)C(=O)N[C@@H]([C@@H](C)O)C(=O)N1)C(C)C)C(=O)NCC(=O)N[C@@H](Cc1ccccc1)C(=O)NCC(=O)N1CCC[C@H]1C(=O)N[C@@H](CCC(=O)O)C(=O)N[C@H](C(=O)N1CCC[C@H]1C(N)=O)[C@@H](C)O [pCT] (H-CSNLSTCVLSAYWRNLNNFHRFSGMGFGPETP-NH2; disulfide 1-7) | 46 ± 3 | 94 ± 9 | 101 ± 8 | 112 ± 10 | 73 ± 6
 |  |  |  |  | CC(C)C[C@H](NC(=O)[C@H](CCCCN)NC(=O)CNC(=O)[C@H](CC(C)C)NC(=O)[C@@H](NC(=O)[C@@H]1CSSC[C@H](N)C(=O)N[C@@H](CO)C(=O)N[C@@H](CC(N)=O)C(=O)N[C@@H](CC(C)C)C(=O)N[C@@H](CO)C(=O)N[C@@H]([C@@H](C)O)C(=O)N1)C(C)C)C(=O)N[C@@H](CO)C(=O)N[C@@H](CCC(N)=O)C(=O)N[C@@H](CCC(=O)O)C(=O)N[C@@H](CC(C)C)C(=O)N[C@@H](Cc1c[nH]cn1)C(=O)N[C@@H](CCCCN)C(=O)N[C@@H](CC(C)C)C(=O)N[C@@H](CCC(N)=O)C(=O)N[C@H](C(=O)N[C@@H](Cc1ccc(O)cc1)C(=O)N1CCC[C@H]1C(=O)N[C@@H](CCCNC(=N)N)C(=O)N[C@H](C(=O)N[C@@H](CC(N)=O)C(=O)N[C@H](C(=O)NCC(=O)N[C@@H](CO)C(=O)NCC(=O)N[C@H](C(=O)N1CCC[C@H]1C(N)=O)[C@@H](C)O)[C@@H](C)O)[C@@H](C)O)[C@@H](C)O [sCT] | 78 ± 6 | 97 ± 4 | 123 ± 6 | 109 ± 7 | 123 ± 6
